Test [1] relates to Pseudomonas aeruginosa (ATCC 15442). Briefly: High resolution MIC combination test (minimum inhibitory concentration), 96-well microtiter plate, mineral salts medium with 2% glucose.
Excerpt: When the sum of Qa/QA and Qb/QB is greater than one, antagonism is indicated. […] The lower the SI, the greater the synergy shown by that particular mixture. The minimum inhibitory concentration (MIC) of a microbicide is the lowest concentration tested under a specific set of conditions that prevents the growth of added microorganisms.
The tests were set up with 96-well microtiter plate using the Biomek™ 2000 Workstation employing a high resolution MIC/MBC combination test method, which provides multiple combinations of two biocides in one test plate. […] Samples (10 μl) taken from each well of the MIC plate were transferred to fresh media in the MBC plates and observed for the presence of surviving (viable) microorganisms over time. […] The synergistic ratio range of the biocide combination is a reflection of the total activity of both inhibition (MIC) and killing MBC).
Each well received 20 μl of a 24-hour pure culture suspension of Pseudomonas aeruginosa (ATCC 15442) at a final density of 106 colony forming units (CFU) per ml. Cell density was adjusted to an optical density of 0.09 at 660 nm using a spectrophotometer.
Tests were set up in duplicate with different starting concentrations of biocides to increase the number of possible combinations displaying antimicrobial activity.
All biocide results are reported on an active ingredient basis in ppm (parts per million).
Test [2] shares this test system. Briefly: High resolution MBC combination test (minimum biocidal concentration), recovery in Trypticase Soy Broth plus thioglycolate.

6 compounds from patent publication US20060003023A1, “Microbicidal composition” (priority 2004, published 2006) can be followed below.

Where “and” joins values, the source holds several entries; their conditions need not be identical. Equal entries are not always repeated.

With “Alkyl*dimethyl benzyl ammonium chloride [ADBAC]”, the “A alone (MIC)” value in test [1] (Day 1, MIC 1) is recorded as 12.50 ppm active ingredient; in test [1] (Day 3, MIC 2), 50.00 ppm active ingredient. Besides, the “A alone (MBC)” value in test [2] (Day 3, MBC 1) was 50.00 ppm active ingredient; in test [2] (Day 3, MBC 2), 50.00 ppm active ingredient.

On to `CC1(C)C(=O)N(Br)C(=O)N1Cl` [BCDMH, 3-Bromo-1-chloro-5,5-dimethylhydantoin], for which the A alone in test [1] (MIC of BCDMH alone, Day 1, Expt MIC 1) turned out to be 3.13 ppm total oxidant; in test [1] (MIC of BCDMH alone, Day 1, Expt MIC 2) it was 3.13 ppm total oxidant; in test [1] (MIC of BCDMH alone, Day 3, Expt MIC 1), 6.25 ppm total oxidant; in test [1] (MIC of BCDMH alone, Day 3, Expt MIC 2), 6.25 ppm total oxidant; in test [1] (MIC of BCDMH alone, Day 5, Expt MIC 1), 6.25 ppm total oxidant; in test [1] (MIC of BCDMH alone, Day 5, Expt MIC 2), 6.25 ppm total oxidant. For the same compound, the A alone in test [2] (MBC of BCDMH alone, Day 1, Expt MBC 1) is 6.25 ppm total oxidant; in test [2] (MBC of BCDMH alone, Day 1, Expt MBC 2) it was 6.25 ppm total oxidant; in test [2] (MBC of BCDMH alone, Day 3, Expt MBC 2), 6.25 ppm total oxidant.

Take `O=CCCCC=O` [GLUT, Pentane-1,5-dial]: the A alone in test [1] (glutaraldehyde alone, ppm active ingredient, day 1, MIC 1) turned out to be 25.00 ppm; in test [1] (glutaraldehyde alone, ppm active ingredient, day 1, MIC 2), 25.00 ppm; in test [1] (glutaraldehyde alone, ppm active ingredient, day 3, MIC 1), 25.00 ppm; in test [1] (glutaraldehyde alone, ppm active ingredient, day 3, MIC 2), 50.00 ppm; in test [1] (glutaraldehyde alone, ppm active ingredient, day 5, MIC 1), 25.00 ppm; in test [1] (glutaraldehyde alone, ppm active ingredient, day 5, MIC 2), 50.00 ppm. Besides, the A alone was 25.00 ppm in test [2] (glutaraldehyde alone, ppm active ingredient, day 1, MBC 1); 25.00 ppm in test [2] (glutaraldehyde alone, ppm active ingredient, day 1, MBC 2); 50.00 ppm in test [2] (glutaraldehyde alone, ppm active ingredient, day 3, MBC 2). Moreover, the a/A came to 0.50 in test [1] (glutaraldehyde comb./alone, day 1, MIC 1); 0.50 in test [1] (glutaraldehyde comb./alone, day 1, MIC 2); 0.50 in test [1] (glutaraldehyde comb./alone, day 3, MIC 1); 0.50 in test [1] (glutaraldehyde comb./alone, day 3, MIC 2); 0.50 in test [1] (glutaraldehyde comb./alone, day 5, MIC 1); 0.50 in test [1] (glutaraldehyde comb./alone, day 5, MIC 2). The a/A in test [2] (glutaraldehyde comb./alone, day 1, MBC 1) turned out to be 0.50; in test [2] (glutaraldehyde comb./alone, day 1, MBC 2), 0.50; in test [2] (glutaraldehyde comb./alone, day 3, MBC 2), 0.50. Besides, the a comb. stood at 12.50 ppm in test [1] (glutaraldehyde combined with stabilized hypochlorite and bromide, ppm active ingredient, day 1, MIC 1); 12.50 ppm in test [1] (glutaraldehyde combined with stabilized hypochlorite and bromide, ppm active ingredient, day 1, MIC 2); 12.50 ppm in test [1] (glutaraldehyde combined with stabilized hypochlorite and bromide, ppm active ingredient, day 3, MIC 1); 25.00 ppm in test [1] (glutaraldehyde combined with stabilized hypochlorite and bromide, ppm active ingredient, day 3, MIC 2); 12.50 ppm in test [1] (glutaraldehyde combined with stabilized hypochlorite and bromide, ppm active ingredient, day 5, MIC 1); 25.00 ppm in test [1] (glutaraldehyde combined with stabilized hypochlorite and bromide, ppm active ingredient, day 5, MIC 2). For the same compound, the a comb. in test [2] (glutaraldehyde combined with stabilized hypochlorite and bromide, ppm active ingredient, day 1, MBC 1) worked out at 12.50 ppm; in test [2] (glutaraldehyde combined with stabilized hypochlorite and bromide, ppm active ingredient, day 1, MBC 2) it was 12.50 ppm; in test [2] (glutaraldehyde combined with stabilized hypochlorite and bromide, ppm active ingredient, day 3, MBC 2), 25.00 ppm.

Consider `O=c1[nH]sc2ccccc12` [BIT, 1,2-Benzisothiazolin-3-one], for which the A alone in test [1] is listed as 25.00 ppm; in test [1] (BIT alone, ppm active ingredient, day 1, MIC 2), 50.00 ppm; in test [1] (BIT alone, ppm active ingredient, day 3, MIC 2) it was 100.00 ppm; in test [2] (BIT alone, ppm active ingredient, day 1, MBC 2), 100.00 ppm. In addition, the a/A in test [1] (BIT comb./alone, day 1, MIC 1) is 0.01; in test [1] (BIT comb./alone, day 1, MIC 2) it was 0.50 and 0.25; in test [1] (BIT comb./alone, day 3, MIC 2), 0.50; in test [2] (BIT comb./alone, day 1, MBC 2), 0.50. Further, the a comb. is 25.00 ppm and 12.50 ppm in test [1] (BIT combined with stabilized hypochlorite and bromide, ppm active ingredient, day 1, MIC 2); 50.00 ppm in test [1] (BIT combined with stabilized hypochlorite and bromide, ppm active ingredient, day 3, MIC 2); 50.00 ppm in test [2] (BIT combined with stabilized hypochlorite and bromide, ppm active ingredient, day 1, MBC 2).

Turning to `N#CC(Br)(Br)C(N)=O` [DBNPA, 2,2-Dibromo-nitrilo-propionamide], the A alone in test [1] (DBNPA alone, ppm active ingredient, day 1, MIC 1) is 6.25 ppm; in test [1] (DBNPA alone, ppm active ingredient, day 1, MIC 2) it was 6.25 ppm; in test [1] (DBNPA alone, ppm active ingredient, day 5, MIC 1), 12.50 ppm and 6.25 ppm; in test [1] (DBNPA alone, ppm active ingredient, day 5, MIC 2), 12.50 ppm; in test [2] (DBNPA alone, ppm active ingredient, day 1, MBC 1) it was 12.50 ppm. Also, the a/A in test [1] (DBNPA comb./alone, day 5, MIC 1) is 0.32 and 0.50; in test [1] (DBNPA comb./alone, day 5, MIC 2), 0.32; in test [2] (DBNPA comb./alone, day 1, MBC 1), 0.50. Moreover, the a comb. is 1.56 ppm and 0.78 ppm in test [1] (DBNPA combined with stabilized hypochlorite and bromide, ppm active ingredient, day 1, MIC 1); 4.00 ppm and 3.13 ppm in test [1] (DBNPA combined with stabilized hypochlorite and bromide, ppm active ingredient, day 5, MIC 1); 4.00 ppm in test [1] (DBNPA combined with stabilized hypochlorite and bromide, ppm active ingredient, day 5, MIC 2); 6.25 ppm in test [2] (DBNPA combined with stabilized hypochlorite and bromide, ppm active ingredient, day 1, MBC 1).

`CCCCCCCCn1sc(Cl)c(Cl)c1=O` [DCOIT, 4,5-Dichloro-2-n-octyl-4-isothiazolin-3-one]: the “A alone (MIC)” value in test [1] (Day 1, MIC 1) is 2.50 ppm active ingredient; in test [1] (Day 1, MIC 2) it was 2.50 ppm active ingredient; in test [1] (Day 3, MIC 1), 5.00 ppm active ingredient and 10.00 ppm active ingredient; in test [1] (Day 3, MIC 2) it was 10.00 ppm active ingredient and 5.00 ppm active ingredient; in test [1] (Day 5, MIC 1) it was 5.00 ppm active ingredient; in test [1] (Day 5, MIC 2), 10.00 ppm active ingredient. In addition, the “A alone (MBC)” value is given as 10.00 ppm active ingredient in test [2] (Day 1, MBC 1) and 10.00 ppm active ingredient in test [2] (Day 1, MBC 2).
